According to patent US20170368052A1, “CRYSTAL FORMS OF APOMORPHINE AND USES THEREOF” (NeuroDerm, Ltd., priority 2014, published 2017):
Entries after “also recorded” stand apart in the source; their conditions may differ. Where a name gives a salt, the structure may show the parent alone.

What was measured:
[1] = Stability of the reaction mixture at reflux in IPA with/without ascorbic acid-6-palmitate (HPLC); type: physicochemical
Protocol: In this case, the base was added under reflux and the procedure compared with and without ascorbic acid-6-palmitate as an antioxidant (Table 7).

[2] = Stability study of the isolated solid to air and light (HPLC profile); type: physicochemical
Protocol: The 3-amino-1-propanol mediated salt release of apomorphine was scaled to 10 g in IPA (10 vol), and in order to aid the mobility of the reaction, the addition of the 3-amino-1-propanol was performed at 40-45° C. […] The slurry was cooled and aged over 16 h at 18 to 23° C.
Samples of solids isolated from an IPA recrystallization of the free base, salt released via the 3-amino-1-propanol route were monitored by their color change and their HPLC profile. The HPLC profiles are described in Table 8.

[3] = Vacuum oven drying, retained solvent content; type: physicochemical; conditions: for Solvent content post-drying: vacuum oven, 45° C. for 24 h
Protocol: Four samples (B, G, H and O) were transferred to a vacuum oven and dried at 45° C. for 24 h.

[4] = Stability of the reaction mixture at 40-45° C. (HPLC profile); type: physicochemical; conditions: 40° C.
Protocol: The effect of adding ascorbic acid-6-palmitate on stability of the reaction mixture and the isolated solid was determined in a larger scale reaction (A0513-68). On a 10 g scale, ascorbic acid-6-palmitate (0.01 wt) was added to a flask with the apomorphine hydrochloride salt and IPA (10 vol). 3-amino-1-propanol (2.5 ml, 1.1 eq, 0.25 vol) was added at 40-45° C., and a slurry was present throughout. The slurry was stirred at 40-45° C. for 2 h; at this point 10% of the reaction mixture was removed for an extended stability study at 40-45° C. The remainder of the reaction was cooled and aged over 16 h to 18-23° C. The solid was filtered and washed with IPA (2×3 vol) and resulted a white solid (liquor was pale yellow). The solid was dried under a flow of nitrogen for 30 min. The yield was 7.03 g (79.8%, corrected for 18.3% w/w IPA, approximately 1 eq), 100% area by HPLC (Note: 10% of the reaction mixture was removed for the stability study, therefore this yield is at the expected approximately 90% level, and the combined mother liquor and washes contained 7.6% of theoretical yield by assay). In this material the ascorbic acid-6-palmitate and 3-amino-1-propanol in the product were below detectable levels by ^1H NMR analysis.
Stability of the reaction mixture was compared with and without ascorbic acid-6-palmitate. Each reaction was held at 40-45° C. and both the color and the HPLC profile monitored. HPLC purity profiles are shown on Table 6.

[5] = cited from earlier work; for pKa: amine bases used for salt release in IPA; for Literature pKa: bases of the base screen in n-BuOH
[6] = Stability to air (color visually monitored); type: physicochemical; conditions: visual
Text: Samples of free base isolated from water, IPA, and MeOAc were retained open to air and the color visually monitored (FIG. 2). Over the course of 2 days, the products isolated from organic solvents discolored to green solids. […]

[7] = Solubility of apomorphine free base and HCl salt in solvents; type: physicochemical
Protocol: This material was used in 50 mg portions (A0513-06).
The free base is fully soluble in 5 vol of either MeOH, EtOH, or n-BuOH. […] The free base precipitated as an oil from most solvents, particularly after heating. An apparently crystalline solid formed following dissolution of the free base and cooling in 1,4-dioxane.

[8] = Antioxidant additives: stability of apomorphine free base in MeOH solution (HPLC); type: physicochemical; conditions: MeOH (10 vol)
Protocol: However, the free base in solution is susceptible to aerial oxidation.
The vial was flushed with air, sealed, and stirred. The reactions were compared with a control reaction having no antioxidant. • A—in MeOH (10 vol) (control reaction) • B—ascorbic acid-6-palmitate (10 wt %) in MeOH (10 vol) • C—BHT (10 wt %) in MeOH (10 vol)
Samples were analyzed by HPLC. […] The HPLC profile just after addition of the antioxidant was of similar purity for each sample. After 24 h, sample B had precipitated a small amount of solid in a pale green solution. […] Key impurities elute early in the HPLC profile at RRT 0.15 and 0.18. In the samples without ascorbic acid-6-palmitate these impurities were >1.5% area.

[9] = with ascorbic acid-6-palmitate, isolated solid
[10] = from reaction containing asc, stability of solid in air and light (5 days)
[11] = from reaction containing asc, stability of solid in air and light (14 days)
[12] = isolated from reaction containing asc (1 day)
[13] = ascorbic acid-6-palmitate, 24 h
[14] = ascorbic acid-6-palmitate, 48 h
[15] = ascorbic acid-6-palmitate, 120 h
[16] = no ascorbic acid-6-palmitate, solution at reflux
[17] = isolated stability to air and light (2 days)
[18] = isolated stability to air and light (5 days)
[19] = isolated stability to air and light (17 days)
[20] = with ascorbic acid-6-palmitate, liquors
[21] = no ascorbic acid-6-palmitate, isolated solid
[22] = no ascorbic acid-6-palmitate, liquors

## CC(C)O.CN1CCc2cccc3c2C1Cc1ccc(O)c(O)c1-3 (stereo not drawn) [A0513-98-03]
[1]; [9]
  % area: RRT 1.00: 99.93 % area
  % area: RRT 1.25: 0.07 % area

## CC(C)O.CN1CCc2cccc3c2[C@H]1Cc1ccc(O)c(O)c1-3 [A0513-68-01, apomorphine free base mono-IPA solvate]
[2]; [10]
  % area: RRT 1.00: 99.97 % area
  % area: RRT 1.71: 0.03 % area
[2]; [11]
  % area: RRT 0.41: 0.01 % area
  % area: RRT 1.00: 99.92 % area
  % area: RRT 1.71: 0.03 % area
  % area: RRT 1.76: 0.02 % area
  % area: RRT 2.02: 0.02 % area
[2]; [12]
  % area: RRT 1.00: 99.98 % area
  % area: RRT 1.71: 0.02 % area

## CN1CCc2cccc3c2[C@H]1Cc1ccc(O)c(O)c1-3 [H]
[3]
  Solvent content post-drying: 20.0 % w/w

## CN1CCc2cccc3c2C1Cc1ccc(O)c(O)c1-3 (stereo not drawn) [A0513-68A-03]
[4]; [13]
  % area: RRT 1.00: 99.93 % area
  % area: RRT 1.71: 0.05 % area
  % area: RRT 1.76: 0.03 % area
[4]; [14]
  % area: RRT 1.00: 99.96 % area
  % area: RRT 1.71: 0.04 % area
[4]; [15]
  % area: RRT 1.00: 99.86 % area
  % area: RRT 1.25: 0.04 % area
  % area: RRT 1.71: 0.06 % area
  % area: RRT 1.76: 0.04 % area

## CN(C1CCCCC1)C1CCCCC1 [N-methyl-dicyclohexyl amine]
[5]
  pKa: 9.25

## C[N+](C)(C)CC(=O)O [Betaine]
[5]
  Literature pKa: 12.16

## CN1CCc2cccc3c2[C@H]1Cc1ccc(O)c(O)c1-3 [apomorphine]
[6]; over 2 days
  Color of solid retained open to air: did not appear to change
[6]
  Time over which the solid gradually discolored open to air: about 4 weeks
[7]; 5 vol, 50 mg portions
  Solubility in EtOH: fully soluble
  Solubility in MeOH: fully soluble
  Solubility in n-BuOH: fully soluble

## CN1CCc2cccc3c2C1Cc1ccc(O)c(O)c1-3 (stereo not drawn) [A0513-94-01]
[1]; [16]
  % area: RRT 1.00: 99.56 % area
  % area: RRT 1.09: 0.05 % area
  % area: RRT 1.25: 0.06 % area
  % area: RRT 1.71: 0.06 % area
  % area: RRT 1.76: 0.04 % area

## CN1CCc2cccc3c2C1Cc1ccc(O)c(O)c1-3 (stereo not drawn) [A0513-76-01]
[4]; effective purging, 24 h
  % area: RRT 1.00: 99.90 % area
  % area: RRT 1.71: 0.06 % area
  % area: RRT 1.76: 0.04 % area
[4]; effective purging, 96 h
  % area: RRT 1.00: 99.90 % area
  % area: RRT 1.71: 0.06 % area
  % area: RRT 1.76: 0.04 % area

## CN1CCc2cccc3c2[C@H]1Cc1ccc(O)c(O)c1-3 [Sample G]
[3]; 75° C. for 17 h under vacuum
  IPA content remaining: 17.4 % w/w

## CN1CCc2cccc3c2[C@H]1Cc1ccc(O)c(O)c1-3 [O]
[3]
  Solvent content post-drying: 7.8 % w/w

## CN1CCc2cccc3c2[C@H]1Cc1ccc(O)c(O)c1-3 [Sample B]
[8]; after 24 h
  HPLC purity compared between samples: higher than for either A or C
[8]; after 72 h
  HPLC purity compared between samples: highest purity
[3]
  Solvent content post-drying: 23.4 % w/w

## CC(C)O.CN1CCc2cccc3c2[C@H]1Cc1ccc(O)c(O)c1-3 [A0513-64-05, apomorphine free base mono-IPA solvate]
[2]; isolated solid, no ascorbic acid-6-palmitate, output
  % area: RRT 1.00: 100.00 % area
[2]; [17]
  % area: RRT 1.00: 99.98 % area
  % area: RRT 1.71: 0.02 % area
[2]; [18]
  % area: RRT 1.00: 99.95 % area
  % area: RRT 1.71: 0.03 % area
  % area: RRT 1.76: 0.02 % area
[2]; [19]
  % area: RRT 0.41: 0.03 % area
  % area: RRT 1.00: 99.92 % area
  % area: RRT 1.71: 0.02 % area
  % area: RRT 1.76: 0.03 % area

## CC1(C)CCCC(C)(C)N1 [TMP, 2,2,6,6-tetramethylpiperidine]
[5]
  pKa: 11.07
  Literature pKa: 11.07

## CN1CCc2cccc3c2C1Cc1ccc(O)c(O)c1-3 (stereo not drawn) [A0513-98-02]
[1]; [20]
  % area: RRT 1.00: 95.62 % area
  % area: RRT 1.09: 1.25 % area
  % area: RRT 1.25: 0.19 % area
  % area: RRT 1.29: 0.61 % area
  % area: RRT 1.50: 0.12 % area
  % area: RRT 1.71: 0.45 % area
  % area: RRT 1.76: 0.34 % area

## CN1CCc2cccc3c2[C@H]1Cc1ccc(O)c(O)c1-3 [apomorphine hydrochloride]
[7]; listed as HCl salt, hydrochloride
  Solubility in methanol: the only solvent that dissolved any significant amount; also recorded: moderate solubility
[7]; up to 20 vol at reflux
  Solubility in n-BuOH: did not dissolve

## CN1CCc2cccc3c2C1Cc1ccc(O)c(O)c1-3 (stereo not drawn) [A0513-72-01]
[4]; poor purging, 24 h
  % area: RRT 0.74: 0.22 % area
  % area: RRT 1.00: 98.18 % area
  % area: RRT 1.09: 0.13 % area
  % area: RRT 1.22: 0.44 % area
  % area: RRT 1.25: 0.10 % area
  % area: RRT 1.37: 0.15 % area
  % area: RRT 1.50: 0.07 % area
[4]; poor purging, 48 h
  % area: RRT 0.74: 0.10 % area
  % area: RRT 1.00: 94.66 % area
  % area: RRT 1.09: 2.32 % area
  % area: RRT 1.22: 0.42 % area
  % area: RRT 1.25: 1.46 % area
  % area: RRT 1.37: 0.16 % area
  % area: RRT 1.50: 0.10 % area

## CC(C)O.CN1CCc2cccc3c2C1Cc1ccc(O)c(O)c1-3 (stereo not drawn) [A0513-94-03]
[1]; [21]
  % area: RRT 1.00: 99.81 % area
  % area: RRT 1.25: 0.13 % area
  % area: RRT 1.71: 0.02 % area

## NCCCO [3-amino-1-propanol]
[5]
  pKa: 10.23

## CN1CCc2cccc3c2C1Cc1ccc(O)c(O)c1-3 (stereo not drawn) [A0513-94-02]
[1]; [22]
  % area: RRT 1.00: 92.99 % area
  % area: RRT 1.09: 1.79 % area
  % area: RRT 1.25: 0.57 % area
  % area: RRT 1.29: 1.20 % area
  % area: RRT 1.50: 0.22 % area
  % area: RRT 1.71: 0.34 % area
  % area: RRT 1.76: 0.43 % area
